These results are taken from ChEMBL document CHEMBL1909046, “DrugMatrix in vitro pharmacology data”.

Structures are written as SMILES.

The first assay deals with Aldo-keto reductase family 1 member B1 (Rattus norvegicus, UniProt P07943). Briefly: biochemical. Format: tissue-based, Lens of camera-type eye.
Conditions: not given
For `COc1ccc2cc(CCC(C)=O)ccc2c1` [NABUMETONE], the IC50 result is given as “Not Active”.
Same read-out and setting: the result for `O=C(O)c1cccnc1` [NIACIN] reads “Not Active”.
On the same count and under the same terms, the result for `CNC(=C[N+](=O)[O-])NCCSCc1csc(CN(C)C)n1` [NIZATIDINE] reads “Not Active”; that for `C[C@]12C/C(=C/O)C(=O)C[C@@H]1CC[C@@H]1[C@@H]2CC[C@@]2(C)[C@H]1CC[C@]2(C)O` [OXYMETHOLONE], “Not Active”.
Same read-out and setting: the result for `CC(C)(CO)C(O)C(=O)NCCCO` (stereo not given) [PANTHENOL] reads “Not Active”.

For another assay, the target named is T1, Calcitonin receptor (Homo sapiens, UniProt P30988). Also: in other assays of this panel Not Active means under 50% inhibition at 10 µM.
T1 sequence (P30988 whole entry): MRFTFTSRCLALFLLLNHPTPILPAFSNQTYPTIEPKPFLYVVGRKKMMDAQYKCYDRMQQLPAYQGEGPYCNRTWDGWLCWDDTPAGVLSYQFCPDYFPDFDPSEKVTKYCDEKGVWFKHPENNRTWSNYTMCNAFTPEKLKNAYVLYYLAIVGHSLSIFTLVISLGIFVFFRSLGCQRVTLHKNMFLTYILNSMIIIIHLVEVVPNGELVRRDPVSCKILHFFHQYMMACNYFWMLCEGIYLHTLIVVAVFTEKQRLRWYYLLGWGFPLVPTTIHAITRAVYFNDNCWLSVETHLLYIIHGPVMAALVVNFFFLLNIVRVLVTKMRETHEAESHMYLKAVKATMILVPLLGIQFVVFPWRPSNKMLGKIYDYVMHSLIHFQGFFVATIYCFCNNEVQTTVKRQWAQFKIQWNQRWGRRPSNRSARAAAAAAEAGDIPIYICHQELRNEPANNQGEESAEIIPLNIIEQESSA
Experiment: not given
Format: cell membranes, Membrane. The conditions noted are these: t47d.
Turning to `COc1ccc2cc(CCC(C)=O)ccc2c1` [NABUMETONE], the IC50 result is reported as “Not Active”.
`O=C(O)c1cccnc1` [NIACIN]: the IC50 result is “Not Active”.
Same read-out and setting: the value for `CNC(=C[N+](=O)[O-])NCCSCc1csc(CN(C)C)n1` [NIZATIDINE] was “Not Active”; that for `C[C@]12C/C(=C/O)C(=O)C[C@@H]1CC[C@@H]1[C@@H]2CC[C@@]2(C)[C@H]1CC[C@]2(C)O` [OXYMETHOLONE] was “Not Active”.
Still for that read-out and setting: the value for `CC(C)(CO)C(O)C(=O)NCCCO` (stereo not given) [PANTHENOL] was “Not Active”.

Tested on in another assay: not listed separately
Briefly: DRUGMATRIX: Calcium Channel Type L, Phenylalkylamine radioligand binding (ligand: [3H] (-)-Desmethoxyverapamil (D-888)). It is filed as cell membranes, Rattus norvegicus, Wistar, Brain, Membrane. The conditions noted are these: Not Active = under 50% inhibition at 10 µM.
As to `COc1ccc2cc(CCC(C)=O)ccc2c1` [NABUMETONE], the IC50 entry is “Not Active” and the Ki entry is listed as “Not Active”.
Turning to `O=C(O)c1cccnc1` [NIACIN], the IC50 result is on record as “Not Active” and the Ki result is “Not Active”.
With `CNC(=C[N+](=O)[O-])NCCSCc1csc(CN(C)C)n1` [NIZATIDINE], the IC50 entry is reported as “Not Active” and the Ki result was “Not Active”.
On to `C[C@]12C/C(=C/O)C(=O)C[C@@H]1CC[C@@H]1[C@@H]2CC[C@@]2(C)[C@H]1CC[C@]2(C)O` [OXYMETHOLONE], for which the IC50 result was “Not Active” and the Ki entry is on record as “Not Active”.
Consider `CC(C)(CO)C(O)C(=O)NCCCO` (stereo not given) [PANTHENOL], for which the IC50 entry was “Not Active” and the Ki result was “Not Active”.

The next assay has as its target T2, D(4) dopamine receptor (Homo sapiens, UniProt P21917).
T2 sequence (P21917 whole entry): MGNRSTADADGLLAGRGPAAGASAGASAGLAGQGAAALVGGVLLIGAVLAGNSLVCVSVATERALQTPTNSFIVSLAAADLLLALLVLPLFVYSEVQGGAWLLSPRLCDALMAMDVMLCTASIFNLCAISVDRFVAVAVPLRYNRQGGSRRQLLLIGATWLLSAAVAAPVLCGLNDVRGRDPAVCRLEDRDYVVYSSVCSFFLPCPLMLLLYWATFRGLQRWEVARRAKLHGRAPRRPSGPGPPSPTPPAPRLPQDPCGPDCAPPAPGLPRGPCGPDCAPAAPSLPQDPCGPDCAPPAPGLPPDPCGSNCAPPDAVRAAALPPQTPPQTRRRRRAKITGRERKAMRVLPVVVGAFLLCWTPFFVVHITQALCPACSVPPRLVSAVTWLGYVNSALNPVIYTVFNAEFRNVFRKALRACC
Briefly: DRUGMATRIX: Dopamine D4.2 radioligand binding (ligand: [3H] Spiperone). It is filed as cell membranes, CHO-K1, Membrane. Conditions: cho-k1; Not Active = under 50% inhibition at 10 µM.
`COc1ccc2cc(CCC(C)=O)ccc2c1` [NABUMETONE]: the IC50 result is given as “Not Active”.
On the same count and under the same terms, the result for `O=C(O)c1cccnc1` [NIACIN] reads “Not Active”.
The same measure, in the same setting: the value for `CNC(=C[N+](=O)[O-])NCCSCc1csc(CN(C)C)n1` [NIZATIDINE] was “Not Active”; that for `C[C@]12C/C(=C/O)C(=O)C[C@@H]1CC[C@@H]1[C@@H]2CC[C@@]2(C)[C@H]1CC[C@]2(C)O` [OXYMETHOLONE] was “Not Active”; that for `CC(C)(CO)C(O)C(=O)NCCCO` (stereo not given) [PANTHENOL] was “Not Active”.

The next assay concerns the target T3, Endothelin-1 receptor (Homo sapiens, UniProt P25101). Also: in other assays of this panel Not Active means under 50% inhibition at 10 µM.
T3 sequence (P25101 whole entry): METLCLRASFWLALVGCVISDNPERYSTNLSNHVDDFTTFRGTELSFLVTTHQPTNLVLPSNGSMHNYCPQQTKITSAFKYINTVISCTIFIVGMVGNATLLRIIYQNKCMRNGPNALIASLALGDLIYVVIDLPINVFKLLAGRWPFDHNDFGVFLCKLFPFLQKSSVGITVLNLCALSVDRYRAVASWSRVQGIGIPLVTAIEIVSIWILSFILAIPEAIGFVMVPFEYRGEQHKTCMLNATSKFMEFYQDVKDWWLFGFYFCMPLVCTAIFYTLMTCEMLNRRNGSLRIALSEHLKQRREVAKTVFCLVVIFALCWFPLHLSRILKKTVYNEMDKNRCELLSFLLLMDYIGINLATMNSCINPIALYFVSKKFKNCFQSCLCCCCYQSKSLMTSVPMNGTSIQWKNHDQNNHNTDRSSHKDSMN
Experiment: not given
It is filed as cell membranes, CHO-K1, Membrane. Conditions: cho-k1.
With `COc1ccc2cc(CCC(C)=O)ccc2c1` [NABUMETONE], the IC50 result was “Not Active”.
In the case of `O=C(O)c1cccnc1` [NIACIN], the IC50 result is given as “Not Active”.
Take `CNC(=C[N+](=O)[O-])NCCSCc1csc(CN(C)C)n1` [NIZATIDINE]: the IC50 result is on record as “Not Active”.
Same read-out and setting: the value for `C[C@]12C/C(=C/O)C(=O)C[C@@H]1CC[C@@H]1[C@@H]2CC[C@@]2(C)[C@H]1CC[C@]2(C)O` [OXYMETHOLONE] was “Not Active”; that for `CC(C)(CO)C(O)C(=O)NCCCO` (stereo not given) [PANTHENOL] was “Not Active”.

Tested on in the next assay: not listed separately
Briefly: DRUGMATRIX: GABAA, Muscimol, Central radioligand binding (ligand: [3H] Muscimol). It is filed as cell membranes, Rattus norvegicus, Wistar, Brain, Membrane. The conditions noted are these: Not Active = under 50% inhibition at 10 µM.
As for `COc1ccc2cc(CCC(C)=O)ccc2c1` [NABUMETONE], the IC50 entry is “Not Active” and the Ki entry is “Not Active”.
As for `O=C(O)c1cccnc1` [NIACIN], the IC50 result is “Not Active” and the Ki entry was “Not Active”.
Consider `CNC(=C[N+](=O)[O-])NCCSCc1csc(CN(C)C)n1` [NIZATIDINE], for which the IC50 entry is “Not Active” and the Ki entry was “Not Active”.
Turning to `C[C@]12C/C(=C/O)C(=O)C[C@@H]1CC[C@@H]1[C@@H]2CC[C@@]2(C)[C@H]1CC[C@]2(C)O` [OXYMETHOLONE], the IC50 entry was “Not Active” and the Ki result is “Not Active”.
For `CC(C)(CO)C(O)C(=O)NCCCO` (stereo not given) [PANTHENOL], the IC50 entry was “Not Active” and the Ki entry was “Not Active”.

Tested on in a further assay: not listed separately
The assay can be described thus: DRUGMATRIX: Glutamate, NMDA, Agonism radioligand binding (ligand: [3H] CGP-39653). It is filed as cell membranes, Rattus norvegicus, Wistar, Cerebral cortex, Membrane. The conditions noted are these: Not Active = under 50% inhibition at 10 µM.
With `COc1ccc2cc(CCC(C)=O)ccc2c1` [NABUMETONE], the IC50 entry is recorded as “Not Active” and the Ki result is “Not Active”.
For the compound `O=C(O)c1cccnc1` [NIACIN], the IC50 entry is “Not Active” and the Ki entry is recorded as “Not Active”.
As for `CNC(=C[N+](=O)[O-])NCCSCc1csc(CN(C)C)n1` [NIZATIDINE], the IC50 entry is given as “Not Active” and the Ki entry is “Not Active”.
As for `C[C@]12C/C(=C/O)C(=O)C[C@@H]1CC[C@@H]1[C@@H]2CC[C@@]2(C)[C@H]1CC[C@]2(C)O` [OXYMETHOLONE], the IC50 result is recorded as “Not Active” and the Ki result is “Not Active”.
On to `CC(C)(CO)C(O)C(=O)NCCCO` (stereo not given) [PANTHENOL], for which the IC50 entry is “Not Active” and the Ki entry is given as “Not Active”.

The target of a further assay is T4, Angiotensin-converting enzyme (Oryctolagus cuniculus, UniProt P12822).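 Also: enzymatic inhibition of angiotensin-converting enzyme measured with FAPGG as the substrate; in other assays of this panel Not Active means under 50% inhibition at 10 µM.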
T4 sequence (P12822 whole entry): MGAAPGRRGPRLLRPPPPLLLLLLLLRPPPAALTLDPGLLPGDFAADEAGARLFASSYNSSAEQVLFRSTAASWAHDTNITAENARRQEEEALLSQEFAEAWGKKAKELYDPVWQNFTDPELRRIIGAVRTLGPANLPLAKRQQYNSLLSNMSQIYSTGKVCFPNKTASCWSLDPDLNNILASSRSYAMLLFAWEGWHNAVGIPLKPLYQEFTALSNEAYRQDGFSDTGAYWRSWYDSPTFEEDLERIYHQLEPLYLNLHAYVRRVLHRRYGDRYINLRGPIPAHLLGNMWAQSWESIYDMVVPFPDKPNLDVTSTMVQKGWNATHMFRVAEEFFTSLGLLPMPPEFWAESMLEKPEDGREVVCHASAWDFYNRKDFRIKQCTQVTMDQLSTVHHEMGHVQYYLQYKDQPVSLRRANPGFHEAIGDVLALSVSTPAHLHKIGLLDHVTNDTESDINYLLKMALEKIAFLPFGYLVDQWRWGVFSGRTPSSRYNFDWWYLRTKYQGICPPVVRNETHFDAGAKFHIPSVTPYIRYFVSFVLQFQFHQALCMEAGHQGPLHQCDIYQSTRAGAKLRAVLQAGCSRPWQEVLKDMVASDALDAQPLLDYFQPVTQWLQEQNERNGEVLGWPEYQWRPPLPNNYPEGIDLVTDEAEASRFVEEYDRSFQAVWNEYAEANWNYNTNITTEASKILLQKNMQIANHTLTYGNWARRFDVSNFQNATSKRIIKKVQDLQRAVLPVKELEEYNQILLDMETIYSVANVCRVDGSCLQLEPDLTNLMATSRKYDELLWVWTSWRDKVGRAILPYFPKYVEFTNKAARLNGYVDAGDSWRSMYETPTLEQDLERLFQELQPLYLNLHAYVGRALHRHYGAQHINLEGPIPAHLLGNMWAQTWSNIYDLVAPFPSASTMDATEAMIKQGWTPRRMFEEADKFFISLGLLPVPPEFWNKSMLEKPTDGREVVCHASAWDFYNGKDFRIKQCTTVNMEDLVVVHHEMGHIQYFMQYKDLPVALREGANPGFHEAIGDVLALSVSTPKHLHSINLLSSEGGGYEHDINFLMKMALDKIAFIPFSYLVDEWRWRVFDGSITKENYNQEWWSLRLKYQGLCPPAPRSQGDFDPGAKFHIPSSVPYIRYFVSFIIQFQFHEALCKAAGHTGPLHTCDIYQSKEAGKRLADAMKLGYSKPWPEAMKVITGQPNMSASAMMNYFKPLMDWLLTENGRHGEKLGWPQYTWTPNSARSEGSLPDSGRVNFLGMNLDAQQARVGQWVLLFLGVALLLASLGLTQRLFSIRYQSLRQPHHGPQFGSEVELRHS
Experiment: not given
It is filed as tissue-based, Lung.
Conditions: not given
In the case of `COc1ccc2cc(CCC(C)=O)ccc2c1` [NABUMETONE], the IC50 result is “Not Active”.
`O=C(O)c1cccnc1` [NIACIN]: the IC50 entry is listed as “Not Active”.
Take `CNC(=C[N+](=O)[O-])NCCSCc1csc(CN(C)C)n1` [NIZATIDINE]: the IC50 result was “Not Active”.
With `C[C@]12C/C(=C/O)C(=O)C[C@@H]1CC[C@@H]1[C@@H]2CC[C@@]2(C)[C@H]1CC[C@]2(C)O` [OXYMETHOLONE], the IC50 entry is on record as “Not Active”.
The same measure, in the same setting: the value for `CC(C)(CO)C(O)C(=O)NCCCO` (stereo not given) [PANTHENOL] was “Not Active”.
